{
  "source": "paper doi:10.1101/2021.10.25.465661v1",
  "about": "(biorxiv, 2021)",
  "biological_target": "T1, Q-eTud34 (Drosophila melanogaster, UniProt Q9VE55)",
  "T1 sequence (Q9VE55 959-1515)": "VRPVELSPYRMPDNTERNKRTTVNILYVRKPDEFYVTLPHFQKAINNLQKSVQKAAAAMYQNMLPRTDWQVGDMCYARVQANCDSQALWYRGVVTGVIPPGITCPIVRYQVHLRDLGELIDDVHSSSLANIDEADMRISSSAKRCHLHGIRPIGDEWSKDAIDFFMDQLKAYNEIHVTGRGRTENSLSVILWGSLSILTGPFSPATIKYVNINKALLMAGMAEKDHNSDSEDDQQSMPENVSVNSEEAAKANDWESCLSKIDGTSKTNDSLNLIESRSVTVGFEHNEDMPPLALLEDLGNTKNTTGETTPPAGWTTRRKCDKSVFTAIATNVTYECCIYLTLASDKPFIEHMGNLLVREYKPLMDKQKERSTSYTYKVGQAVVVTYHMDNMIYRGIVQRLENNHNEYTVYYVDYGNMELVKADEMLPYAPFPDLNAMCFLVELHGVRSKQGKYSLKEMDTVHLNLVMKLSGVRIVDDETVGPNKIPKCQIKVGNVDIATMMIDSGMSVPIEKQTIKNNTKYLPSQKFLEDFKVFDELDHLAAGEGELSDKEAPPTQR",
  "assay": "thermal shift assay",
  "type": "binding",
  "details": "read-out: Tm increase at 10 mM",
  "data": [
    {"smiles": "CN(C)C(=N)NCCC[C@H](N)C(=O)O", "note": "[aDMA]", "values": [
      {"measurement": "ΔTm at 10000 µM", "result": 0.9, "unit": "°C"}
    ]}
  ]
}
